pEC50: −log10 of the molar value. A value given as a limit tells only on which side of the number the result lay.

Data set [1] is described as follows: Compound toxicity, ATPLite total ATP levels. The format is cell-based. The settings on record: human, HepAD38 cells; 15,000 cells/well, three days after compound addition; 50% reduction of total ATP levels relative to no drug controls. As for the experimental part: (§1) Methods: HepAD38 cells are maintained as previously reported (Ladner et al, Antimicrob. Agents Chemother. 1997, […], 1715). Briefly, cells are passaged upon attaining confluency in DMEM/F12 media in the presence of 10% FBS, Penn/Strep, 250 μg/mL G418, and 1 ug/ml tetracycline. Novel compounds are screened by first washing cells three times with PBS to remove tetracycline, and plating in 96 well plates at 35,000 cells/well. Compounds dissolved in DMSO are then diluted 1:200 into wells containing cells. Five days after compound addition, material is harvested for analysis. For an extended 8 day analysis, cells are plated and treated as described above, but media and compound are refreshed on d2 and d5 post initial treatment.
Compound toxicity is evaluated by seeding cells at 15,000 cells/well and treating with compound as described above. Three days after compound addition, cells are treated with ATPLite reagent and compound concentrations that reduce total ATP levels in wells by 50% relative to no drug controls (CC50) are reported; CC50 ranges are as follows: A>30 μM; B 10-30 μM; C<10 μM.
A general note: In ATP-based viability assays light output follows the ATP content of the culture.

The next data set has as its system HBV. Nature of the data set: HepAD38 antiviral assay: reduction of viral product accumulation (virion DNA by qPCR, HBsAg or HBeAg by ELISA). The format is cell-based. To be noted: Hepatitis B virus, 120 h; HepAD38 cells, five days after compound addition; 50% reduction of viral product accumulation relative to no drug controls; read-out: HepAD38 EC50. The method, then: as §1
On harvest day, virion DNA is obtained by lysing with Sidestep Lysis and Stabilization Buffer and then quantified via quantitative real time PCR. Commercially available ELISA kits are used to quantitate the viral proteins HBsAg (Alpco) or HbeAg (US Biological) by following the manufacturer's recommended protocol after diluting samples to match the linear range of their respective assays. Irrespective of readout, compound concentrations that reduce viral product accumulation in the cell lysates or supernatants by 50% relative to no drug controls (EC50) are reported; EC50 ranges are as follows: A<1 μM; B 1-10 μM; C>10 μM.
In general terms: Quantitative PCR measures a nucleic acid by following its amplification.

What is called CC50 is the concentration that lowers cell viability or growth by half. The pEC50 is the EC50 on a negative log10 scale, so that one unit is a factor of ten. For `O=S(=O)(c1cc2nc(-c3ccccc3)[nH]c2cc1Cl)N1CCC(O)CC1` [Example 2], the CC50 at 3 days in data set [1] was less than 10 µM. In addition, the pEC50 in the data set on HBV was less than 5.00. Compound `O=S(=O)(c1cc2nc(-c3cc(F)c(F)c(F)c3)[nH]c2cc1Cl)N1CCC(O)CC1` [Example 3] had a half-maximal cytotoxic concentration (CC50) at 3 days in data set [1] greater than 30 µM. In the data set with HBV, the pEC50 is less than 5.00.

In data set [1], `O=S(=O)(c1c(Cl)ccc2c(-c3ccccc3)n[nH]c12)N1CCC(O)CC1` [Example 4] showed a CC50 at 3 days greater than 30 µM. Besides, the pEC50 in the data set on HBV was less than 5.00. In the same order, the values of `O=S(=O)(c1c(Cl)ccc2c(-c3cc(F)c(F)c(F)c3)n[nH]c12)N1CCC(O)CC1` [Example 5] are greater than 30 µM and 5.00 to 6.00. Taken in the same sequence, the figures for `O=S(=O)(c1cc(-c2n[nH]c3ccccc23)ccc1Cl)N1CCC(O)CC1` [Example 6] were greater than 30 µM and less than 5.00. For `O=S(=O)(c1cc(-c2ncc(-c3ccc(F)c(F)c3)[nH]2)cs1)N1CCC(O)CC1` [Example 7], the CC50 at 3 days in data set [1] is greater than 30 µM. The negative-log EC50 (pEC50) with HBV was 5.00 to 6.00.

Compound `O=S(=O)(c1cc(-c2cc(-c3ccc(F)c(F)c3)[nH]n2)ccc1Cl)N1CCC(O)CC1` [Example 8] showed a CC50 at 3 days in data set [1] of 10 to 30 µM. The pEC50 in the data set on HBV was greater than 6.00. `O=S(=O)(c1cc(-c2nc3ccccc3[nH]2)ccc1Cl)N1CCC(O)CC1` [Example 9] gave a CC50 at 3 days in data set [1] of 10 to 30 µM. Further, in the data set on HBV, the pEC50 is less than 5.00. In turn, `O=S(=O)(c1cc(-c2nc3cc(F)c(F)cc3[nH]2)ccc1Cl)N1CCC(O)CC1` [Example 10] returned a CC50 at 3 days in data set [1] greater than 30 µM. In addition, in the data set on HBV, the pEC50 is 5.00 to 6.00.

On to `O=S(=O)(c1cc(-c2ncc(-c3ccccc3)[nH]2)ccc1Cl)N1CCC(O)CC1` [Example 11], for which the CC50 at 3 days in data set [1] was greater than 30 µM. In addition, in the data set with HBV, the pEC50 is 5.00 to 6.00. In data set [1], `O=S(=O)(c1cc(-c2ncc(-c3ccc(F)c(F)c3)[nH]2)ccc1Cl)N1CCC(O)CC1` [Example 12] gave a CC50 at 3 days greater than 30 µM. Also, the pEC50 in the data set on HBV is greater than 6.00. In data set [1], `O=S(=O)(c1cc(-c2ncc(-c3ccc(F)c(Cl)c3)[nH]2)ccc1Cl)N1CCC(O)CC1` [Example 13] gave a CC50 at 3 days of 10 to 30 µM. The pEC50 in the data set on HBV was greater than 6.00. On to `O=S(=O)(c1cc(-c2ncc(-c3ccc(F)c(Br)c3)[nH]2)ccc1Cl)N1CCC(O)CC1` [Example 14], for which the CC50 at 3 days in data set [1] is 10 to 30 µM. For the same compound, in the data set with HBV, the pEC50 was greater than 6.00. Taken in the same sequence, the figures for `O=S(=O)(c1ccc2[nH]c(-c3ccccc3)nc2c1)N1CCC(O)CC1` [Example 15] were greater than 30 µM and less than 5.00. The compound `O=S(=O)(c1cc(-c2cnc(-c3ccc(F)c(F)c3)[nH]2)ccc1Cl)N1CCC(O)CC1` [Example 16] registered a cytotoxic concentration (CC50) at 3 days in data set [1] greater than 30 µM. In addition, the pEC50 in the data set on HBV is 5.00 to 6.00.

Consider `O=S(=O)(c1cc(-c2nc(-c3ccc(Br)c(F)c3)c[nH]2)ccc1Cl)N1CCC(O)CC1` [Example 18], for which, in data set [1], the CC50 at 3 days lay within 10 to 30 µM. Also, the pEC50 with HBV was greater than 6.00.

For `O=S(=O)(c1cc(-c2ncc(-c3cccs3)[nH]2)ccc1Cl)N1CCC(O)CC1` [Example 21], the CC50 at 3 days in data set [1] is greater than 30 µM. Also, the negative logarithm of the EC50 (pEC50) in the data set on HBV was greater than 6.00. Regarding `O=S(=O)(c1cc(-c2nc(-c3ccc(Br)c(F)c3)c[nH]2)ccc1Cl)N1CCN(C2CCCCC2F)CC1` (stereo not drawn) [Example 249], the negative-log EC50 (pEC50) with HBV was greater than 6.00. Regarding `O=S(=O)(c1cc(-c2nc(-c3ccc(Br)c(F)c3)c[nH]2)ccc1Cl)N1CCN([C@@H]2CCCC[C@H]2O)CC1` [Example 250], the pEC50 in the data set on HBV was greater than 6.00. Consider `COC(=O)NCCCCCCCNS(=O)(=O)c1cc(-c2nc(-c3ccc(Br)c(F)c3)c[nH]2)ccc1Cl` [Example 251], for which, in the data set on HBV, the negative-log EC50 (pEC50) is greater than 6.00.

For the compound `CC(C)(C)OC(=O)NCCCCCCCNS(=O)(=O)c1cc(-c2nc(-c3ccc(Br)c(F)c3)c[nH]2)ccc1Cl` [Example 252], the pEC50 in the data set with HBV was greater than 6.00. For the compound `O=S(=O)(c1cc(-c2nc(-c3ccc(Br)c(F)c3)c[nH]2)ccc1Cl)N1CC[C@@H](CO)C1` [Example 253], in the data set with HBV, the pEC50 is greater than 6.00. On to `O=S(=O)(c1cc(-c2nc(-c3ccc(Br)c(F)c3)c[nH]2)ccc1Cl)N1CC[C@H](CO)C1` [Example 254], for which the pEC50 with HBV was greater than 6.00. With `O=S(=O)(c1cc(-c2nc(-c3ccc(Br)c(F)c3)c[nH]2)ccc1Cl)N1CC(O)C(CO)C1` (stereo not drawn) [Example 255], the pEC50 in the data set on HBV is greater than 6.00. `O=S(=O)(c1cc(-c2ncc(-c3ccc(Br)c(F)c3)[nH]2)ccc1Cl)N1CCC2(O)CC2C1` (stereo not drawn) [Example 256]: in the data set on HBV, the pEC50 is greater than 6.00. As to `O=S(=O)(c1cc(-c2ncc(-c3ccc(Br)c(F)c3)[nH]2)ccc1Cl)N1CCC2CC2(O)C1` (stereo not drawn) [Example 257], in the data set on HBV, the pEC50 was greater than 6.00. Regarding `CC1(C)CN(S(=O)(=O)c2cc(-c3ncc(-c4ccc(Br)c(F)c4)[nH]3)ccc2Cl)CCC1O` (stereo not drawn) [Example 258], in the data set on HBV, the pEC50 was greater than 6.00. Same read-out and setting: the same measure for `O=S(=O)(c1cc(-c2nc(-c3ccc(Br)c(F)c3)c[nH]2)ccc1Cl)N1C[C@H](O)[C@@H](O)C1` [Example 259]: greater than 6.00. Same read-out and setting: with `O=S(=O)(c1cc(-c2ncc(-c3ccc(Br)c(F)c3)[nH]2)ccc1Cl)N1CCC[C@@H](CO)C1` [Example 261] the figure was greater than 6.00; with `O=S(=O)(c1cc(-c2ncc(-c3ccc(Br)c(F)c3)[nH]2)ccc1Cl)N1CCC[C@H](CO)C1` [Example 262], greater than 6.00. Consider `O=S(=O)(c1cc(-c2nc(-c3ccc(Br)c(F)c3)c[nH]2)ccc1Cl)N1CCC[C@H](O)[C@H](O)C1` [Example 263], for which the pEC50 in the data set with HBV was greater than 6.00. Consider `O=S(=O)(c1cc(-c2nc(-c3ccc(Br)c(F)c3)c[nH]2)ccc1Cl)N1CCC[C@@H](O)[C@@H](O)C1` [Example 264], for which the pEC50 in the data set on HBV is greater than 6.00. Turning to `O=S(=O)(c1cc(-c2nc(-c3ccc(Br)c(F)c3)c[nH]2)ccc1Cl)N1CCn2c(nnc2C(F)(F)F)C1` [Example 265], in the data set with HBV, the pEC50 was greater than 6.00.

Take `O=S(=O)(c1cc(-c2nc(-c3ccc(Br)c(F)c3)c[nH]2)ccc1Cl)N1CCCOCC1` [Example 266]: in the data set with HBV, the pEC50 was greater than 6.00. Same read-out and setting: the same measure for `O=S(=O)(c1cc(-c2nc(-c3ccc(Br)c(F)c3)c[nH]2)ccc1F)N1CCC(O)CC1` [Example 267]: greater than 6.00. Turning to `O=S(=O)(c1cc(-c2ncc(-c3ccc(Br)c(F)c3)[nH]2)ccc1Cl)N1CCC[C@@H](O)C1` [Example 268], the pEC50 in the data set on HBV is greater than 6.00.

Regarding `O=S(=O)(c1cc(-c2ncc(-c3ccc(Br)c(F)c3)[nH]2)ccc1Cl)N1CCCCC(CO)C1` (stereo not drawn) [Example 269], the pEC50 in the data set on HBV was greater than 6.00. For the compound `O=S(=O)(c1cc(-c2ncc(-c3ccc(Br)c(F)c3)[nH]2)ccc1Cl)N1CC[C@H](O)[C@@H](C(F)(F)F)C1` [Example 270], the pEC50 in the data set on HBV was greater than 6.00.

Turning to `O=S(=O)(c1cc(-c2ncc(-c3ccc(Br)c(F)c3)[nH]2)ccc1Cl)N1CC[C@H](O)C1` [Example 271], the pEC50 with HBV was greater than 6.00. Still for that read-out and setting: the same measure for `COC(=O)N1C[C@@H]2[C@@H](CNS(=O)(=O)c3cc(-c4ncc(-c5ccc(Br)c(F)c5)[nH]4)ccc3Cl)[C@@H]2C1` [Example 272]: 5.00 to 6.00. With `COC(=O)NC1CN(S(=O)(=O)c2cc(-c3ncc(-c4ccc(Br)c(F)c4)[nH]3)ccc2Cl)C1` [Example 273], in the data set with HBV, the pEC50 is greater than 6.00. Regarding `COC(=O)NCC1CCN(S(=O)(=O)c2cc(-c3ncc(-c4ccc(Br)c(F)c4)[nH]3)ccc2Cl)C1` (stereo not drawn) [Example 274], in the data set on HBV, the pEC50 was greater than 6.00.

As for `O=S(=O)(c1cc(-c2nc(-c3ccc(Br)c(F)c3)c[nH]2)ccc1Cl)N1C[C@H](O)C[C@@H]2C[C@@H]2C1` [Example 275], the pEC50 with HBV was greater than 6.00.

For `O=S(=O)(c1cc(-c2nc(-c3ccc(Br)c(F)c3)c[nH]2)ccc1Cl)N1CCN(c2ncccc2F)CC1` [Example 276], the pEC50 with HBV is greater than 6.00. Same read-out and setting: with `O=S(=O)(c1cc(-c2nc(-c3ccc(Br)c(F)c3)c[nH]2)ccc1Cl)N1CCC[C@@H](O)[C@H](O)C1` [Example 277] the figure was greater than 6.00. With `O=S(=O)(c1cc(-c2nc(-c3ccc(Br)c(F)c3)c[nH]2)ccc1Cl)N1CCC[C@H](O)[C@@H](O)C1` [Example 278], in the data set with HBV, the pEC50 was greater than 6.00. Take `O=S(=O)(c1cc(-c2nc(-c3ccc(Br)c(F)c3)c[nH]2)ccc1Cl)N1CCN(c2ncccc2Cl)CC1` [Example 279]: the pEC50 with HBV is greater than 6.00. Same read-out and setting: with `O=S(=O)(c1cc(-c2nc(-c3ccc(Br)c(F)c3)c[nH]2)ccc1Cl)N1CCN(c2cc(Cl)ccn2)CC1` [Example 280] the figure was greater than 6.00. Same read-out and setting: with `O=S(=O)(c1cc(-c2nc(-c3ccc(Br)c(F)c3)c[nH]2)ccc1Cl)N1CCN(c2ccc(Cl)cn2)CC1` [Example 281] the figure was greater than 6.00; with `O=S(=O)(c1cc(-c2nc(-c3ccc(Br)c(F)c3)c[nH]2)ccc1Cl)N1CCN(c2cccc(Cl)n2)CC1` [Example 282], greater than 6.00.

Consider `O=S(=O)(c1cc(-c2nc(-c3ccc(Br)c(F)c3)c[nH]2)ccc1Cl)N1C[C@H](O)CC[C@@H](O)C1` [Example 283], for which the pEC50 with HBV is greater than 6.00. `O=S(=O)(c1cc(-c2nc(-c3ccc(Br)c(F)c3)c[nH]2)ccc1Cl)N1C[C@H](O)CC[C@H](O)C1` [Example 284]: the pEC50 in the data set with HBV is greater than 6.00.

For the origin of these results see patent publication US10442788B2, “Hepatitis B antiviral agents” (ENANTA PHARMACEUTICALS, INC., priority 2015, dated 2019).
